Results published in patent publication US20230104936A1, “TRPML MODULATORS” (Casma Therapeutics, Inc., priority 2019, published 2023).

Tested on: TFEB
Assay: TFEB nuclear translocation assay, HeLa wt cells
Type: cell-based
Conditions: 2 hrs compound treatment, Table 1 does not say HeLa wt or TRPML1 KO
In short: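 Using 20× epifluorescence of fixed, anti-TFEB-stained HeLa wt cells treated 2 hrs with compound, nuclear versus perinuclear ring intensity was quantified over four fields per well, yielding AC50 values.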

SMILES | AC50 (Homo sapiens, HeLa, 2 h) [µM] | AC50 [µM]
CN(C)C1Cc2ccccc2C12CCN(c1ccccc1NS(=O)(=O)c1ccc(S(=O)(=O)N(C)C)cc1)CC2 (centres unmarked) [Compound A-370, N4-{2-[2-(dimethylamino)-2,3-dihydrospiro[indene-1,4′-piperidin]-1′-yl]phenyl}-N1,N1-dimethylbenzene-1,4-disulfonamide] | ≤ 2 | 
O=S(=O)(Nc1cc(Cl)ccc1N1CC23CCC2(COC3)C1)c1ccc2c(c1)CCC2 (centres unmarked) [Compound A-344, N-(5-chloro-2-{3-oxa-7-azatricyclo[3.3.2.0^1,^5]decan-7-yl}phenyl)-2,3-dihydro-1H-indene-5-sulfonamide] | 2.01 to 8 | 
C[C@@H]1CN(CC2CCN(c3c(F)cccc3NS(=O)(=O)c3ccc(S(C)(=N)=O)cc3)CC2)C[C@H](C)O1 (single isomer, unassigned) [Compound A-847] |  | ≥ 10
CN1CCC(S(=O)(=O)Nc2ccccc2N2CCN(c3ccc(Cl)cc3F)CC2)CC1 [Compound A-16, N-{2-[4-(4-chloro-2-fluorophenyl)piperazin-1-yl]phenyl}-1-methylpiperidine-4-sulfonamide] | 2.01 to 8 | 
Cc1nc(N2CCN(c3ccc(Cl)cc3F)CC2=O)cn1S(=O)(=O)c1ccc(S(=O)(=O)N(C)C)cc1 [Compound A-89, 4-((4-(4-(4-chloro-2-fluorophenyl)-2-oxopiperazin-1-yl)-2-methyl-1H-imidazol-1-yl)sulfonyl)-N,N-dimethylbenzenesulfonamide] | ≤ 2 | 
O=S(=O)(CC12CC3CC(CC(C3)C1)C2)Nc1cccc(Cl)c1N1CCOCC1 [Compound A-394, 1-(adamantan-1-yl)-N-[3-chloro-2-(morpholin-4-yl)phenyl]methanesulfonamide] | 2.01 to 8 | 
Cc1nocc1S(=O)(=O)Nc1ccccc1N1CCN(c2ccc(Cl)cc2F)CC1 [Compound A-35, N-{2-[4-(4-chloro-2-fluorophenyl)piperazin-1-yl]phenyl}-3-methyl-1,2-oxazole-4-sulfonamide] | ≥ 10 | 
COCC1(C)CCN(c2ccccc2NS(=O)(=O)c2ccc3c(c2)CCC(C(F)F)O3)CC1 (centres unmarked) [Compound A-644, 2-(difluoromethyl)-N-{2-[4-(methoxymethyl)-4-methylpiperidin-1-yl]phenyl}-3,4-dihydro-2H-1-benzopyran-6-sulfonamide] | 2.01 to 8 | 
O=S(=O)(Nc1cccc(Cl)c1N1CCN(c2ccc(Cl)cc2F)CC1)c1ccc2c(c1)CCC2 [Compound A-288, N-{3-chloro-2-[4-(4-chloro-2-fluorophenyl)piperazin-1-yl]phenyl}-2,3-dihydro-1H-indene-5-sulfonamide] | ≤ 2 | 
CN(C)S(=O)(=O)c1ccc(S(=O)(=O)N(C)c2cc(Cl)ccc2N2CCOCC2)cc1 [Compound A-285, N1-[5-chloro-2-(morpholin-4-yl)phenyl]-N1,N4,N4-trimethylbenzene-1,4-disulfonamide] | ≥ 10 | 
CC1(C)Cc2cc(S(=O)(=O)Nc3ccccc3N3CCC4(CCOCC4)CC3)ccc2O1 [Compound A-654, 2,2-dimethyl-N-(2-{3-oxa-9-azaspiro[5.5]undecan-9-yl}phenyl)-2,3-dihydro-1-benzofuran-5-sulfonamide] | ≤ 2 | 
Cc1ccc(N2CCOCC2)c(NS(=O)(=O)Cc2ccccc2)c1 [Compound A-628, N-[5-methyl-2-(morpholin-4-yl)phenyl]-1-phenylmethanesulfonamide] | 2.01 to 8 | 
C[C@@H]1COC[C@@H](C)N1CC1CCN(c2c(F)cccc2NS(=O)(=O)c2ccc(S(=N)(=O)N(C)C)cc2)CC1 (stereo partly drawn) [Compound A-836, N-(2-(4-(((3S,5S)-3,5-dimethylmorpholino)methyl)piperidin-1-yl)-3-fluorophenyl)-4-(N,N-dimethylsulfamidimidoyl)benzenesulfonamide] |  | 2.01 to 8
COc1ccc(S(=O)(=O)Nc2ccccc2N2CCC(Cc3ccc(F)cc3F)CC2)cc1 [Compound A-195, N-(2-{4-[(2,4-difluorophenyl)methyl]piperidin-1-yl}phenyl)-4-methoxybenzene-1-sulfonamide] | 2.01 to 8 | 
